1 compound from patent US8906931B1, “9-[4-(3-chloro-2-fluoro-phenylamino-7-methoxy-quinazoline-6-yloxy]-1,4-diaza-spiro[5.5]undecane-5-one dimaleate, use thereof as a medicament and method for the production thereof” (Boehringer Ingelheim International GmbH, priority 2011, dated 2014) can be followed below.

This data set is described as follows: Water sorption test (DVS, hygroscopicity). Format: physicochemical. As to conditions: humidity range of 10-90% r.h. Here is the method: By low hygroscopicity is meant, within the scope of the present invention, that in sorption experiments on the compound of formula (I) a water uptake of less than 1% is observed in the humidity range of 10-90% investigated.
A DVS-1 made by Surface Measurement Systems (=SMS) is used to test the hygroscopic characteristics: the following humidity profiles are used: 10-90% r.h. in 10% steps, recording both a sorption and a desorption profile, typical weights: 10-20 mg

For `COc1cc2ncnc(Nc3cccc(Cl)c3F)c2cc1O[C@H]1CC[C@@]2(CC1)NCCNC2=O.O=C(O)/C=C\C(=O)O.O=C(O)/C=C\C(=O)O` [(I), (trans)-9-[4-(3-chloro-2-fluoro-phenylamino)-7-methoxy-quinazolin-6-yloxy]-1,4-diaza-spiro[5.5]undecan-5-one dimaleic acid compound], the “water uptake in sorption experiments” value is “less than 1%”.
